Data reported in publication PMC10651654 (Clinical and Translational Science, 2023).
In brackets after ≈: the same amount, converted by molar mass. Read-outs that look alike come from different tables or passages of the source.

Legend:
[1] = PBPK drug-drug interaction simulations; set-up: species or system human
CYP2B6 = settings: source cell empty, row above: ref GastroPlus user manual[10]; cited from earlier work
CYP3A4 [2] = settings: ref GastroPlus user manual[10], cited from earlier work
OATP1B3 = target: T1, OATP1B3 (Homo sapiens, UniProt Q9NPD5); test: OATP1B3 inhibition; format: in vitro ADME
T1 sequence (Q9NPD5 1-702): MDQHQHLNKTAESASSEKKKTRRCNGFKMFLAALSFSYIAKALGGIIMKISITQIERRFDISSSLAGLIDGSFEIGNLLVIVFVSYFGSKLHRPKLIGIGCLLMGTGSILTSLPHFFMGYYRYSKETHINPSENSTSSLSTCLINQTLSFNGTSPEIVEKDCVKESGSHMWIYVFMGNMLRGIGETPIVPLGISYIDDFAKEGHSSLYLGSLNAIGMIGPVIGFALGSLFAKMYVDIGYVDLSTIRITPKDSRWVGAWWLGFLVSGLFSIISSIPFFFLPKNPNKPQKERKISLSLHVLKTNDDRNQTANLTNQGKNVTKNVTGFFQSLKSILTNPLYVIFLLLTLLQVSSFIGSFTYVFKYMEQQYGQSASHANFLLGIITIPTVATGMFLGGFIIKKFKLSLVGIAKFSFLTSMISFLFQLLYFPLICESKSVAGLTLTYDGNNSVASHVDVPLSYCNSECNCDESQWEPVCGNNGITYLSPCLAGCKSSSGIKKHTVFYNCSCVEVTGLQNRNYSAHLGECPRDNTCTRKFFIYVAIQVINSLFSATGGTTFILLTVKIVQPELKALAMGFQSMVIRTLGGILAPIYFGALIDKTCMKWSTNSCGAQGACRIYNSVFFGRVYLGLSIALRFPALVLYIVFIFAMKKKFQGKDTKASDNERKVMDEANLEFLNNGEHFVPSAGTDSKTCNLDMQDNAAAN

P-gp = P-gp (Homo sapiens, UniProt P08183); test: P-gp inhibition in P-gp-transfected cell monolayers; format: in vitro ADME
[3] = cited from earlier work
BCRP = target: T2, BCRP (Homo sapiens, UniProt Q9UNQ0); test: BCRP inhibition in BCRP-transfected cell monolayers; format: in vitro ADME
T2 sequence (Q9UNQ0 1-655): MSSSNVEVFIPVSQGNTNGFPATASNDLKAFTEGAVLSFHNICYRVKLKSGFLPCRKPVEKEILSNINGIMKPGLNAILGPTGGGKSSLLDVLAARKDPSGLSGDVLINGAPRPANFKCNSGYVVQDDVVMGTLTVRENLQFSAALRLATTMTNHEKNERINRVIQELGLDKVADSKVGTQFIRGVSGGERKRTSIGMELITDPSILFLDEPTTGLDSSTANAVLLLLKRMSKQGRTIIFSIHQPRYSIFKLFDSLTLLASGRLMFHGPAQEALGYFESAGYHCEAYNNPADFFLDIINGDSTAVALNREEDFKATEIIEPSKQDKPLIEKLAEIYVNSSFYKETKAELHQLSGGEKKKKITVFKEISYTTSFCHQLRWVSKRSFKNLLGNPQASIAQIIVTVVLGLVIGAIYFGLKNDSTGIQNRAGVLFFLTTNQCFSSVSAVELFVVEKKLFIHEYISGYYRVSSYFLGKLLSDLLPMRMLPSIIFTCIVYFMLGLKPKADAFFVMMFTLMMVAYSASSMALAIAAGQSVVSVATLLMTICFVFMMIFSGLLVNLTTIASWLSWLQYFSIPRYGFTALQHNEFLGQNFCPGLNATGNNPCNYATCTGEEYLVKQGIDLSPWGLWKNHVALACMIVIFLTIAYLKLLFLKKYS

OATP1B1 = target: T3, OATP1B1 (Homo sapiens, UniProt Q9Y6L6); test: OATP1B1 inhibition; format: in vitro ADME
T3 sequence (Q9Y6L6 1-691): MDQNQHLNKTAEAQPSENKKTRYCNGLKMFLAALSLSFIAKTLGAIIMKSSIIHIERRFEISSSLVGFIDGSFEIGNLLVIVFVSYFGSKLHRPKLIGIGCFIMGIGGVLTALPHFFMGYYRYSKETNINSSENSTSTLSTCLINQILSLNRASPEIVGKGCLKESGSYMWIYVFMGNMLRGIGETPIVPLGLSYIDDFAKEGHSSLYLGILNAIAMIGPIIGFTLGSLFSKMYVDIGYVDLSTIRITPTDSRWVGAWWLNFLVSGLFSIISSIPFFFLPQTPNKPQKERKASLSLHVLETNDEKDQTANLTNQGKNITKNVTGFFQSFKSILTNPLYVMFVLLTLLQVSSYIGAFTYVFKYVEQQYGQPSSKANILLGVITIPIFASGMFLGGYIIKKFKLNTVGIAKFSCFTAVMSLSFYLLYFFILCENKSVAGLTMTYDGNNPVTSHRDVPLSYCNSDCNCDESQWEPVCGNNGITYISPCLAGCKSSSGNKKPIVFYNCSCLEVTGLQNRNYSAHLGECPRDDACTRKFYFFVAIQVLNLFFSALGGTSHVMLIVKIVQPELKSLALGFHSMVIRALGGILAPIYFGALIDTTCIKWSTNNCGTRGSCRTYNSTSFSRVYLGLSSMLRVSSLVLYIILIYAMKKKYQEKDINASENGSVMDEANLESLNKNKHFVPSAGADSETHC

[4] = Apparent permeability in Caco-2 cells; format: in vitro ADME; settings: human
CYP2C8 = target: T4, CYP2C8 (Homo sapiens, UniProt P10632); test: CYP2C8 inhibition; format: in vitro ADME
T4 sequence (P10632 1-490): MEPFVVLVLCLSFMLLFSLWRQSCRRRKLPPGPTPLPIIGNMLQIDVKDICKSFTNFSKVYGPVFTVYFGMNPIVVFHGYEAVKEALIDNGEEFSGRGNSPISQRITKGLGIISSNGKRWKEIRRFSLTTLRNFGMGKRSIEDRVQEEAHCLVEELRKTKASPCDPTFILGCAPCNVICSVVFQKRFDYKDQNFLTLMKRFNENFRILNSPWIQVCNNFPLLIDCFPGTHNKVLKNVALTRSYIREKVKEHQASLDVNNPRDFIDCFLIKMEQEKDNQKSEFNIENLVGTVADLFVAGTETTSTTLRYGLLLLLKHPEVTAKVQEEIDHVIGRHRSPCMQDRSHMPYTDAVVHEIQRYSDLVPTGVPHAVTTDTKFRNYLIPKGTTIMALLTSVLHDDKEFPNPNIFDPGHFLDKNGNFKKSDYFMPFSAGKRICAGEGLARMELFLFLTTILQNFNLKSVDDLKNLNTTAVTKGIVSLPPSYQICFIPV

CYP3A4 [5] = target: T5, CYP3A4 (Homo sapiens, UniProt P08684); format: in vitro ADME; settings: percent compound remaining after 60 min in presence of NADPH
CYP2C9 = CYP2C9 (Homo sapiens, UniProt P11712); test: CYP2C9 inhibition; format: in vitro ADME
[6] = Physicochemical input parameters
PBPK model = settings: human, oral, 600 mg
[7] = Clinical drug-drug interaction studies; format: in vivo, human
CYP3A4 [8] = target: T5, CYP3A4; test: biochemical; format: in vitro ADME
other CYP isoforms = test: In vitro metabolism of [14C]-ziritaxestat by CYP isoforms; format: in vitro ADME; settings: human, CYP isoforms other than CYP3A4, 60 min
[9] = cited from earlier work; remark: listed apart in the source
[10] = cited from earlier work; remark: listed apart in the source
CYP3A4 [11] = target: T5, CYP3A4; settings: data on file
[12] = pravastatin probe verification, interaction with gemfibrozil (OATP1B1 inhibitor)

T5 sequence (P08684 whole entry): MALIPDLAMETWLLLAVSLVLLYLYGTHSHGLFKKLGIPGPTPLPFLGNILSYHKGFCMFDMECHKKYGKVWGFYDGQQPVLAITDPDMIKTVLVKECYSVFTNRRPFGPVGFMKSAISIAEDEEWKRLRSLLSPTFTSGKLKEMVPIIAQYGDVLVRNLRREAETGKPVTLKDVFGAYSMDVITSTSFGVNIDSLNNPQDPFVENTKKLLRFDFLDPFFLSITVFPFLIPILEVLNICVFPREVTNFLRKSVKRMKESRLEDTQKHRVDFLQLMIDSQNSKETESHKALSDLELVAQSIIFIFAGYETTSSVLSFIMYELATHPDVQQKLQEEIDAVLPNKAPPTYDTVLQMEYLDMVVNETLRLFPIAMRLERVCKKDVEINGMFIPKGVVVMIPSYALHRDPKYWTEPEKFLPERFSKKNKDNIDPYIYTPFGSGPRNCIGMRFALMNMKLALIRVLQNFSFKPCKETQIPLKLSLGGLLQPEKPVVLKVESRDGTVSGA
Chain of CYP2C9 (P11712 whole entry): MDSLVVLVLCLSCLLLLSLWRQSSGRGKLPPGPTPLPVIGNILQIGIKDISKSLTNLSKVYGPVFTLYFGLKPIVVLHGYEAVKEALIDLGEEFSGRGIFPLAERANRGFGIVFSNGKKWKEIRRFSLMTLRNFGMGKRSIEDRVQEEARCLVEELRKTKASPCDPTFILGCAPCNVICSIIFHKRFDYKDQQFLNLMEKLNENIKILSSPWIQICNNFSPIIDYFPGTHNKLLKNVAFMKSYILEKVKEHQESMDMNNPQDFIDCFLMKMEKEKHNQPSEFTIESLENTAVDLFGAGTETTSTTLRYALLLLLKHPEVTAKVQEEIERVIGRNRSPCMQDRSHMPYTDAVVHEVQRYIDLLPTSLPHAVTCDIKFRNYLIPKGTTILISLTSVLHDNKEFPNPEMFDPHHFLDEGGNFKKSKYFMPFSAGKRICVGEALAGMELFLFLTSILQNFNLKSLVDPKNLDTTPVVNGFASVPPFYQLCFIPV
Chain of P-gp (P08183 whole entry): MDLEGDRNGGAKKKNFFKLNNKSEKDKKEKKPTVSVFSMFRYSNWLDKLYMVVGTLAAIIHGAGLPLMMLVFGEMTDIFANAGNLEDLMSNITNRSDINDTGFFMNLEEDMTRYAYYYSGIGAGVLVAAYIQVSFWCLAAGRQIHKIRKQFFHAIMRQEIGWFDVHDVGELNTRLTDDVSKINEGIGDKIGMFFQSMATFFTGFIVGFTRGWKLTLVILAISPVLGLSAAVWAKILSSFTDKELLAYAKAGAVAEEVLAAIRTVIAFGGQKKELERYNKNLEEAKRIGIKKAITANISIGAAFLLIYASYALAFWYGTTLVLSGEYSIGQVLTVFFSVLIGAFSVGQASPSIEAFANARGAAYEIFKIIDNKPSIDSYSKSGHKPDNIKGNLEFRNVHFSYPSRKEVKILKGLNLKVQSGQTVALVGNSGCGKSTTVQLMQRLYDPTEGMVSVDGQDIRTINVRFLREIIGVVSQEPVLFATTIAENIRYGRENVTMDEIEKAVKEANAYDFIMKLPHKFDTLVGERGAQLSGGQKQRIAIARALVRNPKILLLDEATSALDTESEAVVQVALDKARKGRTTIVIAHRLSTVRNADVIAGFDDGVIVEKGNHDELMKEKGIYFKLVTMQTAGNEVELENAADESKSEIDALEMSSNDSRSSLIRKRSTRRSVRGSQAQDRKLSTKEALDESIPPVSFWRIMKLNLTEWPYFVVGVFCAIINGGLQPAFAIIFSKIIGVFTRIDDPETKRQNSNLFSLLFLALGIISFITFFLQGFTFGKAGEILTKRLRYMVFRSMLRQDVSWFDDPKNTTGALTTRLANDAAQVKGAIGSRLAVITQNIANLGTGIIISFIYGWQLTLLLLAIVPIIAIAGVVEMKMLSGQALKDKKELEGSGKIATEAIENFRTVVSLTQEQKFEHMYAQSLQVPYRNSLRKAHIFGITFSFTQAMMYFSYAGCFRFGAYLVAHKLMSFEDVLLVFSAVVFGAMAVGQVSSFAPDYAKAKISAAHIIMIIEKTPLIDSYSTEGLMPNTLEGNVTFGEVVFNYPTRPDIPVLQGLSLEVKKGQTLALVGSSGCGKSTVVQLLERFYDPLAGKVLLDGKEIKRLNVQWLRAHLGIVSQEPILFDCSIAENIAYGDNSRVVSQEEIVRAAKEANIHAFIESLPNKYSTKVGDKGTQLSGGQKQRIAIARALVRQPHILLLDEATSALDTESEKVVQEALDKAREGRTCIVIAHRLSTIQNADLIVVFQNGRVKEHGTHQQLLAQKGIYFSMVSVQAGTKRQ

CC(=O)N1CCN(c2ccc(OCC3COC(Cn4ccnc4)(c4ccc(Cl)cc4Cl)O3)cc2)CC1 (stereo not shown) [Ketoconazole]
observed-to-predicted AUC ratio ([1]; efavirenz verification with ketoconazole as victim): 0.90

CC[C@H](C)C(=O)O[C@H]1C[C@H](O)C=C2C=C[C@H](C)[C@H](CC[C@@H](O)C[C@@H](O)CC(=O)O)[C@H]21 [Pravastatin, pravastatin]
observed-to-predicted AUC ratio [1, 12]: 1.03
observed-to-predicted Cmax ratio [1, 12]: 1.10

O=C1Nc2ccc(Cl)cc2[C@@](C#CC2CC2)(C(F)(F)F)O1 [Efavirenz]
Emax induction CYP2B6 (CYP2B6): 5.76

CCc1nc2c(C)cc(N3CCN(CC(=O)N4CC(O)C4)CC3)cn2c1N(C)c1nc(-c2ccc(F)cc2)c(C#N)s1 [Ziritaxestat, ziritaxestat]
IC50 (OATP1B3): 7.04 µM
IC50 (P-gp): > 40 µM
mortality (in words) ([3]; 200 mg and 600 mg daily doses vs placebo): increased mortality compared with placebo
efficacy in IPF (in words) ([3]; 200 mg and 600 mg daily doses): failed to demonstrate efficacy
IC50 (BCRP): > 40 µM
inhibitory potential for OATP1B1 (in words) (OATP1B1): weak
Papp [4]: 47 ×10⁻⁶ cm/s
Ki (CYP2C8): 0.753 µM
time-dependent inhibition of CYP2C8 (in words) (CYP2C8): strong
fraction unbound (CYP2C8; human): 0.52
[14C]-ziritaxestat metabolized by CYP3A4 (CYP3A4 [5]; 10 μM): 84.5%
[14C]-ziritaxestat metabolized by CYP3A4 (CYP3A4 [5]; 100 μM): 28.6%
IC50 (CYP2C9): 13.1 µM
fraction unbound (CYP2C9; human): 0.24
solubility ([6]; FaSSIF): 540 µg/mL (≈ 917 µM)
solubility ([6]; buffer, pH 7.5, aqueous buffer): 66 µg/mL (≈ 112 µM)
logD ([6]; octanol/water, pH 8.25): 3.81
pKa ([6]; pKa1 (base)): 4.99
pKa ([6]; pKa2 (base)): 5.89
Papp (PBPK model): 120 ×10⁻⁶ cm/s
classification as CYP3A4 substrate ([7]; human, in vivo): moderately sensitive CYP3A4 substrate
AUC0–∞ ratio, observed DDI ratio ([7]; ziritaxestat 600 mg SD with/without voriconazole 800 mg SD, data on file): 4.0
IC50 (CYP3A4 [8]): 3.7 µM
contribution of other CYP isoforms to metabolism (maximum) (other CYP isoforms): ≤ 2.1%
fraction absorbed ([9]; 600 mg dose): at least 86%
hepatic first-pass metabolism [9]: 9%
volume of distribution at steady state from observed data, mean [SD] [9]: 23 [11] L
renal excretion of total radioactivity ([9]; single p.o. 600 mg [14C]-ziritaxestat, healthy male subjects): < 7%

COC(=O)c1ccc2c(c1)NC(=O)/C2=C(\Nc1ccc(N(C)C(=O)CN2CCN(C)CC2)cc1)c1ccccc1 [Nintedanib, nintedanib]
reduction of nintedanib exposure by pirfenidone [10]: 1.5 fold
increase in nintedanib exposure with ziritaxestat ([7]; clinical DDI study, data on file): approximately two‐fold
contribution of CYP3A4 to metabolism (CYP3A4 [11]): ~ 7%
